We go through two compounds from patent publication US20140080868A1, “Methods for Treating HCV” (priority 2012, published 2014).

The structures appear in SMILES notation. A value given as a limit tells only on which side of the number the result lay.

By EC50 is commonly meant the concentration giving half of the maximal effect.

What all share (format): cell-based
In experiment [1] the test system is HCV replicon genotype 1a-H77. In words: Stable subgenomic replicon luciferase assay, genotype 1a-H77. The following applies: Hepatitis C virus, luciferase reporter, 5% FBS, read-out: Mean EC50 ± Std. Dev. Background: Replicon systems follow genome replication, usually without infectious particles.
The subject of experiment [2] is HCV replicon genotype 1b-Con1. In words: Stable subgenomic replicon luciferase assay, genotype 1b-Con1. To be noted: Hepatitis C virus, luciferase reporter, 5% FBS, read-out: Mean EC50 ± Std. Dev.
Experiment [3] has as its system HCV replicon with NS5A from genotype 2a. In words: Stable chimeric 1b-Con1 replicon with NS5A from genotype 2a. The following applies: Hepatitis C virus, read-out: Mean EC50 ± Std. Dev.
Experiment [4] deals with HCV replicon with NS5A from genotype 2b. In words: Stable chimeric 1b-Con1 replicon with NS5A from genotype 2b. The following applies: Hepatitis C virus, read-out: Mean EC50 ± Std. Dev.
Experiment [5] deals with HCV replicon with NS5A from genotype 3a. In words: Stable chimeric 1b-Con1 replicon with NS5A from genotype 3a. To be noted: Hepatitis C virus, read-out: Mean EC50 ± Std. Dev.
The test system of experiment [6] is HCV replicon with NS5A from genotype 4a. As to the kind of experiment: Stable chimeric 1b-Con1 replicon with NS5A from genotype 4a. The following applies: Hepatitis C virus, read-out: Mean EC50 ± Std. Dev.
Experiment [7] has as its system HCV replicon with NS5A from genotype 5a. As to the kind of experiment: Stable chimeric 1b-Con1 replicon with NS5A from genotype 5a. The following applies: Hepatitis C virus, read-out: Mean EC50 ± Std. Dev.
For experiment [8], the system named is HCV replicon with NS5A from genotype 6a. In words: Stable chimeric 1b-Con1 replicon with NS5A from genotype 6a. The following applies: Hepatitis C virus, read-out: Mean EC50 ± Std. Dev.
The subject of experiment [9] is HCV replicon with NS5A genotype 2a wild type. As to the kind of experiment: Transient chimeric replicon assay, genotype 2a WT. To be noted: Hepatitis C virus, read-out: Average EC50. From the text: (§1) Transiently replicating chimeric replicons containing NS5A from genotype 2-6 wild types or replicons containing variants within NS5A were constructed in the 1b-Con1 background. These replicons also contained a firefly luciferase reporter gene. Variants were introduced by site-directed mutagenesis using the Change-IT Multiple Mutation Site Directed Mutagenesis Kit (USB). After the mutagenesis was confirmed by sequence analysis, the plasmids were linearized with Scat restriction enzyme. The TranscriptAid T7 High Yield Transcription Kit (Fermentas) was used to transcribe the HCV subgenomic RNA from the plasmids. The RNA was transfected via electroporation into a Huh-7 derived cell line as described (see Middleton et al. and Tripathi et al., supra) except that 3×10^6 cells were electroporated with 15 μg of template RNA and the 96 well plate was seeded with 7.5×10^3 cells per well. Four hours post-transfection, the wells from one plate were harvested for luciferase measurement. […] Luciferin solution (50 μl, Promega) was added to each well, and luciferase activity was measured with a Victor II luminometer (Perkin-Elmer). The percent inhibition of HCV RNA replication was calculated for each compound concentration and the EC50 value was calculated using nonlinear regression curve fitting to the 4-parameter logistic equation and GraphPad Prism 4 software.

Experiment [10] has as its system HCV replicon with NS5A genotype 2a T24A variant. In words: Transient chimeric replicon assay, genotype 2a T24A. The following applies: Hepatitis C virus, read-out: Average EC50.
Description: as §1

For experiment [11], the system named is HCV replicon with NS5A genotype 2b wild type. As to the kind of experiment: Transient chimeric replicon assay, genotype 2b WT. To be noted: Hepatitis C virus, read-out: Average EC50.
Description: as §1

The subject of experiment [12] is HCV replicon with NS5A genotype 2b L28F variant. In words: Transient chimeric replicon assay, genotype 2b L28F. To be noted: Hepatitis C virus, read-out: Average EC50.
Description: as §1

In experiment [13] the test system is HCV replicon with NS5A genotype 3a wild type. As to the kind of experiment: Transient chimeric replicon assay, genotype 3a WT. To be noted: Hepatitis C virus, read-out: Average EC50.
Description: as §1

Experiment [14] has as its system HCV replicon with NS5A genotype 3a Y93H variant. In words: Transient chimeric replicon assay, genotype 3a Y93H. To be noted: Hepatitis C virus, read-out: Average EC50.
Description: as §1

Experiment [15] has as its system HCV replicon with NS5A genotype 4a L30H variant. In words: Transient chimeric replicon assay, genotype 4a L30H. The following applies: Hepatitis C virus, read-out: Average EC50.
Description: as §1

Experiment [16] has as its system HCV replicon with NS5A genotype 5a wild type. As to the kind of experiment: Transient chimeric replicon assay, genotype 5a WT. To be noted: Hepatitis C virus, read-out: Average EC50.
Description: as §1

Experiment [17] concerns HCV replicon with NS5A genotype 5a L28I variant. As to the kind of experiment: Transient chimeric replicon assay, genotype 5a L28I. To be noted: Hepatitis C virus, read-out: Average EC50.
Description: as §1

Experiment [18] deals with HCV replicon with NS5A genotype 5a L31F variant. As to the kind of experiment: Transient chimeric replicon assay, genotype 5a L31F. The following applies: Hepatitis C virus, read-out: Average EC50.
Description: as §1

Experiment [19] relates to HCV replicon with NS5A genotype 6a wild type. In words: Transient chimeric replicon assay, genotype 6a WT. The following applies: Hepatitis C virus, read-out: Average EC50.
Description: as §1

For experiment [20], the system named is HCV replicon with NS5A genotype 6a T58N variant. In words: Transient chimeric replicon assay, genotype 6a T58N. To be noted: Hepatitis C virus, read-out: Average EC50.
Description: as §1

Experiment [21] relates to HCV replicon with NS5A genotype 6a L31V variant. As to the kind of experiment: Transient chimeric replicon assay, genotype 6a L31V. The following applies: Hepatitis C virus, read-out: Average EC50.
Description: as §1

Experiment [22] relates to HCV replicon with NS5A genotype 6a T58A variant. In words: Transient chimeric replicon assay, genotype 6a T58A. The following applies: Hepatitis C virus, read-out: Average EC50.
Description: as §1

The subject of experiment [23] is stable subgenomic replicons with NS5A from HCV genotype 1a, 1b, 2a, 2b, 3a, 4a, 5a, and 6a. In words: Stable subgenomic replicons, genotype panel (summary statement). The following applies: Hepatitis C virus, read-out: EC50 values against stable subgenomic replicons with NS5A from a broad range of HCV genotypes.
Experiment [24] has as its system HCV variants that are resistant to other NS5A inhibitors. As to the kind of experiment: Transient subgenomic replicon assays, resistant variant panel (summary statement). The following applies: Hepatitis C virus, read-out: EC50 values against HCV variants resistant to other NS5A inhibitors, transient subgenomic replicon assays.
Description: as §1

Experiment [25] relates to HCV replicon with NS5A genotype 2b L31V variant. As to the kind of experiment: Transient chimeric replicon assay, genotype 2b L31V. The following applies: Hepatitis C virus, read-out: Average EC50.
Description: as §1

Experiment [26] concerns HCV replicon with NS5A genotype 3a M28T variant. As to the kind of experiment: Transient chimeric replicon assay, genotype 3a M28T. The following applies: Hepatitis C virus, read-out: Average EC50.
Description: as §1

Experiment [27] deals with HCV replicon with NS5A genotype 4a L28V variant. As to the kind of experiment: Transient chimeric replicon assay, genotype 4a L28V. To be noted: Hepatitis C virus, read-out: Average EC50.
Description: as §1

For experiment [28], the system named is HCV replicon with NS5A genotype 5a L31V variant. As to the kind of experiment: Transient chimeric replicon assay, genotype 5a L31V. The following applies: Hepatitis C virus, read-out: Average EC50.
Description: as §1

Consider `COC(=O)N[C@H](C(=O)N1CCC[C@H]1c1nc2cc([C@H]3CC[C@H](c4cc5nc([C@@H]6CCCN6C(=O)[C@@H](NC(=O)OC)[C@@H](C)OC)[nH]c5cc4F)N3c3cc(F)c(N4CCC(c5ccc(F)cc5)CC4)c(F)c3)c(F)cc2[nH]1)[C@@H](C)OC` [Compound 1, methyl {(2S,3R)-1-[(2S)-2-{5-[(2R,5R)-1-{3,5-difluoro-4-[4-(4-fluorophenyl)piperidin-1-yl]phenyl}-5-(6-fluoro-2-{(2S)-1-[N-(methoxycarbonyl)-O-methyl-L-threonyl]pyrrolidin-2-yl}-1H-benzimidazol-5-yl)pyrrolidin-2-yl]-6-fluoro-1H-benzimidazol-2-yl}pyrrolidin-1-yl]-3-methoxy-1-oxobutan-2-yl}carbamate], for which the concentration for a half-maximal effect (EC50) in [1] amounted to 0.0018 ± 0.0009 nM; in experiment [2], 0.0043 ± 0.0017 nM; in [3], 0.0023 ± 0.0007 nM; in [4] it was 0.0019 ± 0.0006 nM; in [5] it was 0.0021 ± 0.0007 nM; in experiment [6] it was 0.0019 ± 0.0006 nM. Also, the EC50 came out at 0.0014 ± 0.0004 nM in [7]; 0.0028 ± 0.0007 nM in experiment [8]; 0.0013 nM in experiment [9]; 0.0013 nM in [10]; 0.001 nM in [11]; 0.0011 nM in experiment [12]. The EC50 in experiment [13] is 0.0018 nM; in experiment [14], 0.0043 nM; in experiment [15], 0.001 nM; in [16], 0.0011 nM; in [17], 0.001 nM; in experiment [18], 0.0019 nM. In addition, the EC50 in experiment [19] was 0.0014 nM; in experiment [20] it was 0.0025 nM; in [21] it was 0.001 nM; in experiment [22], 0.0015 nM; in [23] it was less than 10000 nM; in experiment [24], less than 5000 nM.
Take `COC(=O)N[C@H](C(=O)N1CCC[C@H]1C(=O)Nc1ccc([C@@H]2CC[C@@H](c3ccc(NC(=O)[C@@H]4CCCN4C(=O)[C@@H](NC(=O)OC)C(C)C)cc3)N2c2ccc(C(C)(C)C)cc2)cc1)C(C)C` [reference compound, reference compound]: the half-maximal effective concentration (EC50) stood at 0.0034 nM in experiment [9]; 0.092 nM in [10]; 0.0011 nM in experiment [11]; 0.039 nM in [12]; 0.427 nM in [25]; 0.0072 nM in [13]. Further, the EC50 was 3.03 nM in [26]; greater than 100 nM in experiment [14]; 0.0053 nM in experiment [27]; 0.072 nM in [17]; 0.263 nM in experiment [18]; 0.221 nM in experiment [28]. The EC50 in [19] turned out to be 0.08 nM; in experiment [20] it was 8.47 nM; in [21], 5.04 nM; in experiment [22] it was 1.15 nM.
